Experiments:
Type in all cases: biochemical
[1] = target: T1, ThiSG (thiazole synthase) (Bacillus subtilis, UniProt O31618); assay: thiazole reconstitution, strong anion exchange HPLC; conditions: without TenI; ThiF, NifS, ThiO, cysteine, ATP, glycine, DXP
T1 sequence (O31618 1-256): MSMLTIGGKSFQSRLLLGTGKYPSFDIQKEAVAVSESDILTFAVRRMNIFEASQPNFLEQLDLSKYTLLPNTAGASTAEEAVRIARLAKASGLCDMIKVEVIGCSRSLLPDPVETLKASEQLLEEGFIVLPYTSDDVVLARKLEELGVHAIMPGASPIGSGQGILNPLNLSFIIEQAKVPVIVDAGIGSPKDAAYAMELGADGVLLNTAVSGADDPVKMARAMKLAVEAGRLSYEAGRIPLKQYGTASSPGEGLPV
T1 sequence (O31617 1-66 partner): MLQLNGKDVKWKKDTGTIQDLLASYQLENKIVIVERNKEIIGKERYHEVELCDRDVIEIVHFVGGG

[2] = target: thiamin phosphate synthase (ThiE) (Bacillus subtilis, UniProt P39594); assay: thiochrome assay, HPLC with fluorescence detection; conditions: co-substrate HMP-PP
[3] = target: T2, ThiO (Bacillus subtilis, UniProt O31616); assay: H2O2 formation, HRP-coupled absorbance at […] nm; conditions: 0.1-10 mM glycine, without TenI
T2 sequence (O31616 1-369): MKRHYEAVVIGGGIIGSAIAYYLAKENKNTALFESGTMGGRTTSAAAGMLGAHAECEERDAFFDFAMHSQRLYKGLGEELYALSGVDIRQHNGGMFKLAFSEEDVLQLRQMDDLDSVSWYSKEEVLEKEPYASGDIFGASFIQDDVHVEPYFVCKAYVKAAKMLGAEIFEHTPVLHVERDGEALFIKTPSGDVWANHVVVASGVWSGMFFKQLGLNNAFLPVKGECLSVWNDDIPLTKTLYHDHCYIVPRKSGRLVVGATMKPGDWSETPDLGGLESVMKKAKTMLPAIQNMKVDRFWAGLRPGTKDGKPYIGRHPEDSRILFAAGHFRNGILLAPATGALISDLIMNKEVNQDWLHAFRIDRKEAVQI

Sequence of thiamin phosphate synthase (ThiE) (P39594 whole entry): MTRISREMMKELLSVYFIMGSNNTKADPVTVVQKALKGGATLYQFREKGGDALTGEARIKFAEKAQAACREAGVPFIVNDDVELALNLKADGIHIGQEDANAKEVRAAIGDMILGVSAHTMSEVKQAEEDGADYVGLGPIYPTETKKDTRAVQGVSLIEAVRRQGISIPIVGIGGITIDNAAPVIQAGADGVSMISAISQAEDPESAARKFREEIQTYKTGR

Row | SMILES | thiochrome assay, HPLC with fluorescence detection [2] | further results
1 | CC1=N[C@@H](C(=O)O)S/C1=C\COP(=O)(O)O [compound 14, (R,Z)-2-(2-carboxy-4-methylthiazol-5(2H)-ylidene)ethyl phosphate] |  | thiazole reconstitution, strong anion exchange HPLC [1]: In the absence of TenI, cThz*-P was the only thiazole product formed
2 | Cc1ncsc1CCOP(=O)(O)O [compound 15, 2-(4-methylthiazol-5-yl)ethyl phosphate] | cThz-P and Thz-P are significantly better substrates than cThz*-P | 
3 | Cc1nc(C(=O)O)sc1CCOP(=O)(O)O [compound 16, 2-(2-carboxy-4-methylthiazol-5-yl)ethyl phosphate] | cThz-P and Thz-P are significantly better substrates than cThz*-P | 
4 | NCC(=O)O [compound 19, glycine] |  | H2O2 formation, HRP-coupled absorbance at 500 nm [3]: the rate of hydrogen peroxide production with increasing concentrations of glycine was unaffected by TenI
